Assay results reported in patent publication US20250161250A1, “COMPOSITIONS AND METHODS FOR TREATMENT OF IDIOPATHIC PULMONARY FIBROSIS” (NUFORMIX TECHNOLOGIES LIMITED, priority 2022, published 2025).
Entries after “also recorded” stand apart in the source; their conditions may differ.

Experiments:
Type in all cases: cell-based
IL-6 = IL-6 levels in human IPF-PCLS culture supernatants (MSD multiplex ELISA); details: single treatment, any concentration tested
Description: (§1) PCLS preparation and culture: PCLS were prepared from a single explanted human IPF lung and rested for 48 hrs to allow the post-slicing stress period to elapse before experiments began. PCLS were subsequently incubated with vehicle (0.1% DMSO), tranilast as a 1:1 l-lysine tranilast salt at 2 escalating concentrations (31.25 μM, 125 μM), pirfenidone at 3 escalating concentrations (0.25 mM, 1 mM, 2.5 mM) or nintedanib at 3 escalating concentrations (0.25 μM, 1 μM, 2.5 μM) in the presence or absence of Tranilast at 2 escalating concentrations (31.25 μM, 125 μM) for a further 96 hrs. PCLS culture media and all compounds were refreshed at 24 hrs intervals. All PCLS were harvested at 144 hrs.
(§2) Experimental groups: Twenty-one (21) different groups with n=6 human PCLS (total n=126 per lung) were investigated as shown in Table 4 below. PCLS were prepared from n=1 individual human IPF lungs.
(§3) PCLS Treatments and Media Collections: PCLS were incubated for a 48 hr rest period. […]
(§4) PCLS harvest: Cell culture supernatant (n=6 per group) were collected every 24 hrs and snap frozen for quantification of inflammatory cytokines and soluble ECM proteins. At harvest, PCLS (n=6 per group) and cell culture media (n=6 per group) were snap frozen for quantification of inflammatory cytokines and soluble ECM proteins.
(§5) Soluble outputs analysis: Anti-inflammatory potential was assessed by determining the levels of the inflammation markers MCP-1, IL-6, GMCSF, IL-8, and IL-1β in the tissue culture supernatants experiment (n=213 samples (n=630 samples; n=126 at 48 hrs, 72 hrs, 96 hrs, 120 hrs and 144 hrs) were quantified using a MSD multiplex ELISA (MesoScaleDiscovery). Anti-fibrotic potential was assessed by determining the levels of the fibrosis markers Collagen-1a1, TIMP1, and Fibronectin in the tissue culture supernatants (n=630 samples as above) were quantified using a single-plex ELISA (R&D). Summary data for all inflammatory markers and fibrotic markers in PCLS treated with pirfenidone (FIGS. 1a and 1b) or nintedanib (FIGS. 2a and 2b) in the presence or absence of Tranilast at 144 hrs only. […]

MCP-1 = MCP-1 levels in human IPF-PCLS culture supernatants (MSD multiplex ELISA); details: for MCP-1: after 4-day dosing; for MCP-1 secretion: any concentration tested, human IPF PCLS supernatant
Description: as §1, §2
(§6) PCLS Treatments and Media Collections: PCLS were incubated for a 48 hr rest period. Post-rest, PCLS were incubated for a further 96 hrs in the presence or absence of inhibitors as outlined above. PCLS culture media, including all compounds, were refreshed and harvested at 24 hrs intervals from 48 hrs. All PCLS were harvested at 144 hrs.
as §4
(§7) Soluble outputs analysis: Anti-inflammatory potential was assessed by determining the levels of the inflammation markers MCP-1, IL-6, GMCSF, IL-8, and IL-1β in the tissue culture supernatants experiment (n=213 samples (n=630 samples; n=126 at 48 hrs, 72 hrs, 96 hrs, 120 hrs and 144 hrs) were quantified using a MSD multiplex ELISA (MesoScaleDiscovery). Anti-fibrotic potential was assessed by determining the levels of the fibrosis markers Collagen-1a1, TIMP1, and Fibronectin in the tissue culture supernatants (n=630 samples as above) were quantified using a single-plex ELISA (R&D). Summary data for all inflammatory markers and fibrotic markers in PCLS treated with pirfenidone (FIGS. 1a and 1b) or nintedanib (FIGS. 2a and 2b) in the presence or absence of Tranilast at 144 hrs only. Graphs are represented by n=6 tissue culture media per condition, per time point. Data is presented as mean±SEM with individual values per tissue culture media.

Collagen-1a1 = assay: Collagen 1a1 levels in human IPF-PCLS culture supernatants (single-plex ELISA); details: for Collagen 1a1 secretion: single treatment; for Col1A1: after 4-day dosing
Description: as §1, §2, §6, §4, §7

IL-8 = IL-8 levels in human IPF-PCLS culture supernatants (MSD multiplex ELISA); details: single treatment, any concentration tested
Description: as §1, §2, §3, §4, §5

Fibronectin = Fibronectin levels in human IPF-PCLS culture supernatants (single-plex ELISA); details: single treatment, high concentration, at 144 hrs
Description: as §1, §2, §3
PCLS harvest: Cell culture supernatant (n=6 per group) were collected every 24 hrs and snap frozen for quantification of inflammatory cytokines and soluble ECM proteins. At harvest, PCLS (n=6 per group) and cell culture media (n=6 per group) were snap frozen for quantification of inflammatory cytokines and soluble ECM proteins. […]

[1] = alone (suboptimal / ineffective concentration)
[2] = suboptimal concentrations alone

COC(=O)c1ccc2c(c1)NC(=O)/C2=C(\Nc1ccc(N(C)C(=O)CN2CCN(C)CC2)cc1)c1ccccc1 [nintedanib]
IL-6 secretion (IL-6): Little to no effect | MCP-1 (MCP-1; [1]): no effect; also recorded: neither nintedanib (Nin) nor tranilast (TL) alone effected | MCP-1 secretion (MCP-1; single treatment): little to no effect | Collagen 1a1 secretion (Collagen-1a1; any concentration tested): little to no effect | IL-8 secretion (IL-8): little to no effect

Cc1ccc(=O)n(-c2ccccc2)c1 [pirfenidone]
IL-6 secretion (IL-6): Little to no effect | MCP-1 (MCP-1; [1]): minimal effect | MCP-1 (MCP-1; high concentration alone): strongly inhibited | MCP-1 secretion (MCP-1; single treatment): concentration dependently attenuated | Fibronectin secretion (Fibronectin): attenuation | Col1A1 (Collagen-1a1; high concentration alone): strongly inhibited | Col1A1 (Collagen-1a1; [2]): minimal effect | Collagen 1a1 secretion (Collagen-1a1; any concentration tested): concentration dependently attenuated | IL-8 secretion (IL-8): concentration dependently attenuated

COc1ccc(/C=C/C(=O)Nc2ccccc2C(=O)O)cc1OC [tranilast, 2-[[3-(3,4-dimethoxyphenyl)-1-oxo-2-propenyl]amino]benzoic acid]
IL-6 secretion (IL-6): Little to no effect | MCP-1 (MCP-1; [1]): minimal effect; also recorded: neither nintedanib (Nin) nor tranilast (TL) alone effected | MCP-1 levels (MCP-1; single treatment, high concentration): marginally reduced | Col1A1 (Collagen-1a1; [2]): minimal effect | Collagen 1a1 secretion (Collagen-1a1; high concentration): marginally reduced | IL-8 secretion (IL-8): little to no effect
